# In the NIST ThermoML archive (doi:10.1016/j.fluid.2013.08.022):
# Assay: wn = mass fraction of the nth substance listed
# Conditions: 298.15 K, 101 kPa, Liquid; for viscosity: Cone and plate viscometry; for mass density: Vibrating tube method
viscosity (w1 = 1) [mPa·s],mass density (w1 = 1) [kg/m3],viscosity (w2 = 0) [mPa·s],viscosity (w2 = 0.25) [mPa·s],viscosity (w2 = 0.5) [mPa·s],viscosity (w2 = 0.75) [mPa·s],mass density (w2 = 0) [kg/m3],mass density (w2 = 0.25) [kg/m3],mass density (w2 = 0.5) [kg/m3],mass density (w2 = 0.75) [kg/m3],Structure (SMILES)
0.34,776.85,–,–,–,–,–,–,–,–,CC#N [acetonitrile] + CCOC(=O)OCC
–,–,0.74,0.65,0.57,0.45,969.17,921.12,873.25,824.87,CCOC(=O)OCC [diethyl carbonate] + CC#N
